From patent US12493040B2, “Cancer detection method using sense of smell of nematode” (HIROTSU BIO SCIENCE INC., priority 2013, dated 2025)

Tested on: RNAi-treated eri-1 (mg366) nematodes
Experiment: RNAi screening of olfactory receptor genes: chemotaxis assay of RNAi-treated nematodes to odorants
Type: in vivo, Caenorhabditis elegans
Conditions: low concentration of attractant
Outline: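 eri-1 (mg366) worms knocked down by feeding RNAi (Ahringer library) on IPTG/ampicillin NGM plates with E. coli for 4 days, then tested for chemotaxis, 30–50 worms per assay. Odorants at 1 μl of 10^−3 or 10^−4 dilution, or 1 and 5 μl undiluted. Hits scored by z score, thresholds ±1.96 (P<0.05) or ±0.96.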

CCC(C)=O [butanone]
chemotaxis index (Control nematodes): 0.65 ± 0.021
chemotaxis index (srh-10 RNAi-treated nematodes): −0.65
chemotaxis index (srh-11 RNAi-treated nematodes): −0.15
chemotaxis index (srh-15 RNAi-treated nematodes): 0.55
chemotaxis index (srh-16 RNAi-treated nematodes): 0.74
chemotaxis index (srh-18 RNAi-treated nematodes): 0.52
chemotaxis index (srh-19 RNAi-treated nematodes): 0.89
chemotaxis index (srh-22 RNAi-treated nematodes): 0.19
chemotaxis index (srh-23 RNAi-treated nematodes): 0.67
chemotaxis index (srh-24 RNAi-treated nematodes): 0.59
chemotaxis index (srh-25 RNAi-treated nematodes): 0.72
chemotaxis index (srh-27 RNAi-treated nematodes): 0.63
chemotaxis index (srh-28 RNAi-treated nematodes): 0.55
chemotaxis index (srh-36 RNAi-treated nematodes): 0.37
chemotaxis index (srh-37 RNAi-treated nematodes): 0.37
chemotaxis index (srh-39 RNAi-treated nematodes): 0.48
chemotaxis index (srh-40 RNAi-treated nematodes): 0.94
chemotaxis index (srh-41 RNAi-treated nematodes): 0.64
chemotaxis index (srh-44 RNAi-treated nematodes): 0.82
chemotaxis index (srh-45 RNAi-treated nematodes): 0.73
chemotaxis index (srh-46 RNAi-treated nematodes): 0.82
chemotaxis index (srh-48 RNAi-treated nematodes): 0.55
chemotaxis index (srh-49 RNAi-treated nematodes): 0.80
chemotaxis index (srh-50 RNAi-treated nematodes): 0.87
chemotaxis index (srh-51 RNAi-treated nematodes): 0.70
chemotaxis index (srh-52 RNAi-treated nematodes): 0.69
chemotaxis index (srh-55 RNAi-treated nematodes): 0.43
chemotaxis index (srh-59 RNAi-treated nematodes): 0.51
chemotaxis index (srh-60 RNAi-treated nematodes): 0.79
chemotaxis index (srh-61 RNAi-treated nematodes): 0.74
chemotaxis index (srh-67 RNAi-treated nematodes): 0.85
chemotaxis index (srh-68 RNAi-treated nematodes): 0.67
chemotaxis index (srh-69 RNAi-treated nematodes): 0.66
chemotaxis index (srh-70 RNAi-treated nematodes): 0.43
chemotaxis index (srh-71 RNAi-treated nematodes): 0.76
chemotaxis index (srh-72 RNAi-treated nematodes): 0.58
chemotaxis index (srh-74 RNAi-treated nematodes): 0.76
chemotaxis index (srh-75 RNAi-treated nematodes): 0.76
chemotaxis index (srh-77 RNAi-treated nematodes): 0.70
chemotaxis index (srh-79 RNAi-treated nematodes): 0.58
chemotaxis index (srh-80 RNAi-treated nematodes): 0.64
chemotaxis index (srh-82 RNAi-treated nematodes): 0.79
chemotaxis index (srh-83 RNAi-treated nematodes): 0.71
chemotaxis index (srh-97 RNAi-treated nematodes): 0.80
chemotaxis index (srh-99 RNAi-treated nematodes): 0.75
chemotaxis index (srh-100 RNAi-treated nematodes): 0.80
chemotaxis index (srh-104 RNAi-treated nematodes): 0.48
chemotaxis index (srh-105 RNAi-treated nematodes): 0.76
chemotaxis index (srh-109 RNAi-treated nematodes): 0.89
chemotaxis index (srh-111 RNAi-treated nematodes): 0.59
chemotaxis index (srh-113 RNAi-treated nematodes): 0.30
chemotaxis index (srh-115 RNAi-treated nematodes): 0.70
chemotaxis index (srh-116 RNAi-treated nematodes): 0.56
chemotaxis index (srh-118 RNAi-treated nematodes): 0.60
chemotaxis index (srh-119 RNAi-treated nematodes): 0.50
chemotaxis index (srh-120 RNAi-treated nematodes): 0.78
chemotaxis index (srh-122 RNAi-treated nematodes): 0.58
chemotaxis index (srh-123 RNAi-treated nematodes): 0.84
chemotaxis index (srh-125 RNAi-treated nematodes): 0.76
chemotaxis index (srh-128 RNAi-treated nematodes): 0.69
chemotaxis index (srh-129 RNAi-treated nematodes): 0.63
chemotaxis index (srh-130 RNAi-treated nematodes): 0.82
chemotaxis index (srh-214 RNAi-treated nematodes): 0.85
chemotaxis index (srh-216 RNAi-treated nematodes): 0.86
chemotaxis index (srh-217 RNAi-treated nematodes): 0.69
chemotaxis index (srh-220 RNAi-treated nematodes): 0.81
chemotaxis index (srh-222 RNAi-treated nematodes): 0.62
chemotaxis index (srh-223 RNAi-treated nematodes): 0.88
chemotaxis index (srh-227 RNAi-treated nematodes): 0.37
chemotaxis index (srh-229 RNAi-treated nematodes): 0.60
chemotaxis index (srh-233 RNAi-treated nematodes): 0.50
chemotaxis index (srh-235 RNAi-treated nematodes): 0.76
chemotaxis index (srh-236 RNAi-treated nematodes): 0.71
chemotaxis index (srh-239 RNAi-treated nematodes): 0.59
chemotaxis index (srh-241 RNAi-treated nematodes): 0.63
chemotaxis index (srh-243 RNAi-treated nematodes): 0.72
chemotaxis index (srh-244 RNAi-treated nematodes): 0.73
chemotaxis index (srh-247 RNAi-treated nematodes): 0.85
chemotaxis index (srh-250 RNAi-treated nematodes): 0.79
chemotaxis index (srh-251 RNAi-treated nematodes): 0.92
chemotaxis index (srh-252 RNAi-treated nematodes): 0.86
chemotaxis index (srh-258 RNAi-treated nematodes): 0.56
chemotaxis index (srh-261 RNAi-treated nematodes): 0.60
chemotaxis index (srh-264 RNAi-treated nematodes): 0.56
chemotaxis index (srh-266 RNAi-treated nematodes): −0.31
chemotaxis index (srh-274 RNAi-treated nematodes): −0.59
chemotaxis index (srh-275 RNAi-treated nematodes): −0.29
chemotaxis index (srh-276 RNAi-treated nematodes): 0.30
chemotaxis index (srh-277 RNAi-treated nematodes): −0.09
chemotaxis index (srh-279 RNAi-treated nematodes): 0.89
chemotaxis index (srh-281 RNAi-treated nematodes): 0.49
chemotaxis index (srh-282 RNAi-treated nematodes): 0.80
chemotaxis index (srh-283 RNAi-treated nematodes): 0.65
chemotaxis index (srh-284 RNAi-treated nematodes): 0.73
chemotaxis index (srh-291 RNAi-treated nematodes): 0.86
chemotaxis index (srh-292 RNAi-treated nematodes): 0.80
chemotaxis index (srh-293 RNAi-treated nematodes): 0.75
chemotaxis index (srh-297 RNAi-treated nematodes): 0.84
chemotaxis index (srh-298 RNAi-treated nematodes): 0.65
chemotaxis index (srh-308 RNAi-treated nematodes): 0.04
